Experimental findings from US7138361B2, “Herbicidal heterocycles” (E. I. du Pont de Nemours and Company, priority 2000, dated 2006) are described below.

Test in all cases: Test A postemergence, sprayed to runoff
What all share (type): in vivo

Assay [1] concerns morning glory (Ipomoea spp.). The arrangement: scale not given here. The note with it: Morningglory, approx. eleven days. The method, then: (§1) Seeds of barnyardgrass (Echinochloa crus-galli), crabgrass (Digitaria spp.), giant foxtail (Setaria viridis), morning glory (Ipomoea spp.), redroot pigweed (Amaranthus retroflexus) and velvetleaf (Abutilon theophrasti) were planted into a sandy loam soil and treated preemergence by soil drench with test chemicals formulated in a non-phytotoxic solvent mixture which included a surfactant. At the same time, these crop and weed species were also treated postemergence sprayed to runoff with test chemicals formulated in the same manner. Plants ranged in height from two to eighteen cm and were in the one- to two-leaf stage for the postemergence treatment. Treated plants and untreated controls were maintained in a greenhouse for approximately eleven days, after which time all treated plants were compared to untreated controls and visually evaluated for injury. Plant response ratings, summarized in Table A, are based on a 0 to 10 scale where 0 is no effect and 10 is complete control. A dash (-) response means no test results.

The subject of assay [2] is velvetleaf (Abutilon theophrasti). The arrangement: scale not given here. Conditions: approx. eleven days. The method, then: as §1
Assay [3] deals with crabgrass (Digitaria spp.). Conditions: approx. eleven days. The method, then:
as §1

Assay [4] deals with giant foxtail (Setaria viridis). Conditions: approx. eleven days. The procedure:
as §1

Assay [5] has as its system redroot pigweed (Amaranthus retroflexus). The note with it: approx. eleven days. The procedure: as §1

SMILES strings stand for the structures.

On to `CC1(C)CCc2cn(C3CCN(c4cccc(C(F)(F)F)c4)C3=O)nc21` (centres unmarked) [Compound 10], for which the “Plant response rating (visual injury vs untreated controls)” value turned out to be 10 in assay [1] (Rate 500 g/ha); 20 in assay [1] (Rate 2000 g/ha); 0 in assay [2] (Rate 500 g/ha); 50 in assay [2] (Rate 2000 g/ha); 10 in assay [3] (Rate 500 g/ha); 10 in assay [3] (Rate 2000 g/ha). For the same compound, the “Plant response rating (visual injury vs untreated controls)” value in assay [4] (Rate 500 g/ha) came to 10; in assay [4] (Rate 2000 g/ha) it was 10; in assay [5] (Rate 500 g/ha) it was 20; in assay [5] (Rate 2000 g/ha), 100.
Take `CC1CCc2cn(C3CCN(c4cccc(C(F)(F)F)c4)C3=O)nc21` (centres unmarked) [Compound 11]: the “Plant response rating (visual injury vs untreated controls)” value stood at 10 in assay [1] (Rate 500 g/ha); 10 in assay [1] (Rate 2000 g/ha); 0 in assay [2] (Rate 500 g/ha); 0 in assay [2] (Rate 2000 g/ha); 0 in assay [3] (Rate 500 g/ha); 10 in assay [3] (Rate 2000 g/ha). Also, the “Plant response rating (visual injury vs untreated controls)” value in assay [4] (Rate 500 g/ha) turned out to be 0; in assay [4] (Rate 2000 g/ha) it was 50; in assay [5] (Rate 500 g/ha) it was 70; in assay [5] (Rate 2000 g/ha) it was 90.
In the case of `O=C1C(n2cc(Cl)c(C3CC3)n2)CCN1c1cccc(C(F)(F)F)c1` (centres unmarked) [Compound 12], the “Plant response rating (visual injury vs untreated controls)” value in assay [1] (Rate 500 g/ha), in assay [1] (Rate 2000 g/ha), in assay [2] (Rate 500 g/ha), in assay [2] (Rate 2000 g/ha), in assay [3] (Rate 500 g/ha) and in assay [3] (Rate 2000 g/ha) was 0 in each case. Also, the “Plant response rating (visual injury vs untreated controls)” value in assay [4] (Rate 500 g/ha), in assay [4] (Rate 2000 g/ha), in assay [5] (Rate 500 g/ha) and in assay [5] (Rate 2000 g/ha) was 0 each time.
For the compound `CCC(C)c1nn(C2CCN(c3cccc(C(F)(F)F)c3)C2=O)cc1Cl` (centres unmarked) [Compound 13], the “Plant response rating (visual injury vs untreated controls)” value in assay [1] (Rate 500 g/ha), in assay [1] (Rate 2000 g/ha), in assay [2] (Rate 500 g/ha), in assay [2] (Rate 2000 g/ha), in assay [3] (Rate 500 g/ha) and in assay [3] (Rate 2000 g/ha) was 0 each time. Besides, the “Plant response rating (visual injury vs untreated controls)” value is 0 in assay [4] (Rate 500 g/ha), 0 in assay [4] (Rate 2000 g/ha), 20 in assay [5] (Rate 500 g/ha) and 70 in assay [5] (Rate 2000 g/ha).
Take `CC(C)(C)c1nn(C2CCN(c3cccc(C(F)(F)F)c3)C2=O)cc1Cl` (centres unmarked) [Compound 14]: the “Plant response rating (visual injury vs untreated controls)” value in assay [1] (Rate 500 g/ha), in assay [1] (Rate 2000 g/ha), in assay [2] (Rate 500 g/ha), in assay [2] (Rate 2000 g/ha), in assay [3] (Rate 500 g/ha) and in assay [3] (Rate 2000 g/ha) was 0 in each case. The “Plant response rating (visual injury vs untreated controls)” value in assay [4] (Rate 500 g/ha) is 0; in assay [4] (Rate 2000 g/ha) it was 0; in assay [5] (Rate 500 g/ha) it was 0; in assay [5] (Rate 2000 g/ha), 20.
